Results on five molecules are retold here after ChEMBL document CHEMBL1201862, “PubChem BioAssay data set” (2004).

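In this assay, cells in 96-well plates receive the compound at five concentrations for 48 hours. Endpoints are linearly interpolated between the surrounding concentrations. Abbreviation: GI50, concentration required for 50% inhibition of growth.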 Active and inactive are the calls of the source. Cut-off read from the data, not from the text of the source: active = GI50 up to about 1.1 µM and inactive = higher.

Test systems include 786-0; CCRF-CEM; EKVX; HCT-15; HOP-62; Hs-578T; LXFL 529; MDA-N; Malme-3M; NCI-H23; NCI-H460; OVCAR-3; RXF 393; SK-MEL-5; SN12C; SNB-19; SW-620; T47D; TK-10; UO-31.
Assay in all cases: NCI tumour cell line growth inhibition, 48 h

`CCCCCCCCCCCCCCCCSS(C)(=O)=O`: the GI50 was 7060 nM (inactive) with 786-0; 3030 nM (inactive) in the assay with CCRF-CEM; > 91200 nM (inactive) with EKVX; 11000 nM with HCT-15; > 100000 nM (inactive) with HOP-62; > 100000 nM (inactive) in the assay with Hs-578T. Besides, the GI50 was 8750 nM (inactive) in the assay with LXFL 529; 14800 nM (inactive) in the assay on MDA-N; 7450 nM (inactive) in the assay on Malme-3M; 42800 nM (inactive) in the assay on NCI-H23; > 61200 nM (inactive) in the assay with NCI-H460; 10900 nM (inactive) with OVCAR-3. Besides, the GI50 was 5430 nM (inactive) in the assay with RXF 393; 32800 nM (inactive) in the assay with SK-MEL-5; 37800 nM (inactive) with SN12C; > 100000 nM (inactive) with SNB-19; 5210 nM (inactive) in the assay with SW-620; 8970 nM (inactive) in the assay with T47D. Besides, the GI50 was 24100 nM (inactive) in the assay with TK-10 and 20800 nM (inactive) in the assay with UO-31.
Consider `CCCCCCCCC/C=C/C=C/C(=O)NCC(=O)NC1C(O)C(O)C(Nc2ncnc3[nH]cnc23)OC1C(O)CO` (stereo not given), for which the GI50 was 2.17 nM (active) in the assay with 786-0; 2390 nM (inactive) with CCRF-CEM; 126 nM (active) in the assay on EKVX; 362 nM in the assay on HCT-15; 4.12 nM (active) in the assay with HOP-62; 4.32 nM (active) in the assay with Hs-578T. Further, the GI50 is 8.38 nM (active) in the assay on LXFL 529; 30.6 nM (active) in the assay on MDA-N; 2.42 nM (active) with Malme-3M; 8.69 nM (active) with NCI-H23; 1.89 nM (active) in the assay on NCI-H460; 0.601 nM (active) in the assay with OVCAR-3. Moreover, the GI50 in the assay on RXF 393 was 4.01 nM (active); in the assay with SK-MEL-5 it was 13.7 nM (active); with SN12C, 13.6 nM (active); in the assay with SNB-19 it was 1.75 nM (active); with SW-620, 1.56 nM (active); in the assay on T47D, 169 nM (active). The GI50 in the assay with TK-10 was 2.08 nM (active); in the assay on UO-31 it was 1.96 nM (active).
For `Nc1nc(-c2ccccc2)c(Cl)c(-c2cc(Cl)ccc2O)n1`, the GI50 with 786-0 was 24400 nM (inactive); in the assay with CCRF-CEM it was > 96200 nM (inactive); with EKVX, 28100 nM (inactive); in the assay with HCT-15, 18400 nM; in the assay on HOP-62 it was 14900 nM (inactive); in the assay on LXFL 529, 25900 nM (inactive). In addition, the GI50 in the assay on MDA-N was > 100000 nM (inactive); in the assay on Malme-3M, > 77100 nM (inactive); in the assay on NCI-H23 it was 15800 nM (inactive); in the assay on NCI-H460, 17000 nM (inactive); with OVCAR-3 it was 16100 nM (inactive); with RXF 393, 13800 nM (inactive). The GI50 in the assay with SK-MEL-5 is 14200 nM (inactive); in the assay on SN12C, 25400 nM (inactive); in the assay with SNB-19, 19200 nM (inactive); in the assay with SW-620, 44300 nM (inactive); in the assay with T47D, 3150 nM (inactive); in the assay with TK-10, 15500 nM (inactive). The GI50 in the assay on UO-31 is 16000 nM (inactive).
For `N#CC1(C2SCC[S+]2[O-])C2=C(C(=O)c3ccccc3C2=O)N2CCCC21` (stereo not given), the GI50 was 4210 nM (inactive) in the assay with 786-0; 2940 nM (inactive) in the assay with CCRF-CEM; 4800 nM (inactive) in the assay on EKVX; 2210 nM in the assay on HCT-15; 5280 nM (inactive) in the assay on HOP-62; 3460 nM (inactive) in the assay on Hs-578T. In addition, the GI50 in the assay on LXFL 529 was 2740 nM (inactive); with MDA-N, 605 nM (active); in the assay with Malme-3M, 381 nM (active); in the assay with NCI-H23, 1110 nM (active); in the assay with NCI-H460, 2320 nM (inactive); with OVCAR-3, 583 nM (active). For the same molecule, the GI50 is 998 nM (active) with RXF 393; 364 nM (active) with SK-MEL-5; 2380 nM (inactive) in the assay on SN12C; 6350 nM (inactive) in the assay with SNB-19; 2130 nM (inactive) in the assay on SW-620; 3300 nM (inactive) with T47D. Further, the GI50 with TK-10 is 8770 nM (inactive); in the assay on UO-31, 4680 nM (inactive).
`CC[C@]1(O)C[C@H]2CN(CCc3c([nH]c4ccccc34)[C@@](C(=O)OC)(c3cc4c(cc3OC)N(C)[C@H]3[C@@](O)(C(=O)OC)[C@H](OC(C)=O)[C@]5(CC)C=CCN6CC[C@]43[C@@H]65)C2)C1`: the GI50 in the assay on 786-0 is 0.964 nM (active); in the assay with CCRF-CEM, 0.641 nM (active); in the assay with EKVX, 25.9 nM (active); with HCT-15 it was 24.1 nM; in the assay on HOP-62, 0.832 nM (active); in the assay on LXFL 529, 0.45 nM (active). In addition, the GI50 with MDA-N is 0.476 nM (active); with Malme-3M it was 0.557 nM (active); in the assay with NCI-H23, 0.678 nM (active); in the assay on NCI-H460, 0.629 nM (active); in the assay on OVCAR-3, 0.38 nM (active); in the assay on SK-MEL-5, 0.354 nM (active). Also, the GI50 with SN12C was 1.32 nM (active); in the assay on SNB-19, 1.15 nM (active); in the assay with SW-620, 0.564 nM (active); with UO-31, 143 nM (active).
